Data: paper PMC9963438, “Emerging Effects of Resveratrol Derivatives in Cells Involved in Oral Wound Healing: A Preliminary Study” (International Journal of Molecular Sciences, 2023)

Tests used:
[1] = test system: human gingival fibroblasts (HGFs); experiment: MTT cytocompatibility screening on HGFs, 24 h; format: cell-based; conditions: for HGFs metabolic activity / cell viability (MTT): 10 µM, vs control (DMSO) and RSV; for HGFs cell viability (MTT): vs control and RSV
eNOS mRNA in HUVECs = experiment: RT-qPCR of eNOS in HUVECs; format: cell-based, human; conditions: RSV 10 µM, 48 and 72 h, time-dependent manner
Description: Total RNA was isolated using Trifast reagent (EuroClone) according to the manufacturer instructions from 3 × 10^5 cells/well treated with increasing concentrations of 1d and 1h for 48 h and 72 h. Complementary DNA (cDNA) was obtained using GoTaq® 2 Step RT-qPCR Kit (Promega, Madison, WI, USA) in accordance with the manufacturer’s instructions. RT-qPCR was carried out using SYBR Green (Promega) on the Quant Studio 7 Pro Real-Time PCR System (ThermoFisher, Waltham, MA, USA). The results were normalized to glyceraldehyde 3-phoshate dehydrogenase (GAPDH) for HUVECs and HGFs and to β-actin (βACT) for HOBs using the 2^−ΔΔCt method.

HGFs = experiment: Toluidine blue staining, morphology and confluence of HGFs; format: cell-based, human; conditions: 72 h; 1d and 1h 5 µM, RSV 10 µM
Description: The influence of 1d and 1h was evaluated on cells density and morphology by toluidine-blue staining. A total of 2 × 10^4 cells/well were cultured in 24-well plates and were incubated at 37 °C and 5% CO2 with tested compounds at 5 µM. After 48 and 72 h, adherent cells were fixed with 70% cold ethanol and stained with 1% toluidine blue and 1% borax (Sigma Aldrich, St. Louis, MO, USA). Cells were then observed by an inverted microscope connected with a camera at 40×, 100×, and 200× magnifications (Leica, Wild Heer-brugg, Wetzlar, Germany).

Structure (SMILES)	HGFs metabolic activity / cell viability (MTT) [1]	HGFs cell viability (MTT) ([1]; 50 µM)	HGFs cell viability (MTT) ([1]; 20 µM)	eNOS mRNA expression (eNOS mRNA in HUVECs)	HGFs morphology (HGFs)
COc1cc(OC)cc(S(=O)(=O)Nc2ccc(/C=C/c3ccccc3)cc2)c1 [1f]	significantly decreased the HGFs metabolic activity	statistically reduce HGF viability	–	–	–
O=S(=O)(Nc1ccc(/C=C/c2ccccc2)cc1)c1ccccc1 [1a]	did not show any significant difference	no statistically significant differences	slight increase in HGF viability	–	–
O=[N+]([O-])c1cccc(S(=O)(=O)Nc2ccc(/C=C/c3ccccc3)cc2)c1 [1b]	significantly decreased the HGFs metabolic activity	statistically reduce HGF viability	–	–	–
CS(=O)(=O)Nc1ccc(/C=C/c2ccccc2)cc1 [1g]	significantly decreased the HGFs metabolic activity	statistically reduce HGF viability	statistically significant reduction in cell viability	–	–
N#Cc1ccc(S(=O)(=O)Nc2ccc(/C=C/c3ccccc3)cc2)cc1 [1e]	significantly decreased the HGFs metabolic activity	statistically reduce HGF viability	statistically significant reduction in cell viability	–	–
O=S(=O)(Cc1ccccc1)Nc1ccc(/C=C/c2ccccc2)cc1 [1i]	did not show any significant difference	statistically reduce HGF viability	statistically significant reduction in cell viability	–	–
Cc1ccc(S(=O)(=O)Nc2ccc(/C=C/c3ccccc3)cc2)cc1[N+](=O)[O-] [1c]	did not show any significant difference	statistically reduce HGF viability	–	–	–
Oc1ccc(/C=C/c2cc(O)cc(O)c2)cc1 [RSV, trans-3,5,4′-trihydroxystilbene, reference compound]	–	–	–	induced eNOS mRNA expression	appeared as irregular triangles, polygons, and other shapes
